Source: article PMC12406664, “New derivatives of 6-nitrocoumarin-3-thiosemicarbazone exhibit improved antiparasitic activity in the placenta against Trypanosoma cruzi and Toxoplasma gondii” (Antimicrobial Agents and Chemotherapy, 2025)
Entries after “also recorded” stand apart in the source; their conditions may differ. One block for each compound: values may come before it.

Columns and labels:
[1] = Cytotoxicity on cells (resazurin), BeWo; format: cell-based; conditions: human, BeWo trophoblast cells
Excerpt: (§1) Triton X-100 was used as a positive control, and untreated cells served as a negative control. In addition, the maximum concentration of DMSO was used as a control for the method. […] The obtained values were expressed as IC50([88]).

[2] = system: T. gondii (RH strain) in BeWo cells; assay: T. gondii DNA load in infected BeWo cells by real-time qPCR; format: cell-based, Toxoplasma gondii; conditions: IC50 concentration
Method: (§2) Cells or HPE were exposed to parasites. […] The following treatment conditions were used in both infection models. […] Untreated cells or HPE served as a negative control, and the compounds’ activity was compared with the reference drugs (NFX and PMN).
Subsequently, cells were exposed to parasites at a 1:1 ratio (cell: parasite) for 24 hours. Finally, the cells were washed with PBS and harvested using trypsin. For the parasitic DNA load in the ex vivo infection model, HPE was incubated in 24-well plates and exposed to parasites at a concentration of 10^5 parasites/mL for 24 hours. Finally, they were washed with PBS and homogenized using the ultraturrax homogenizer OMNI TipTM. Genomic DNA was extracted from BeWo cells or HPE using the Wizard Genomic DNA Purification Kit (Promega, USA) following the manufacturer’s instructions. The resulting DNA was quantified using a μDrop Plate DNA quantification system on the Varioskan Flash multimode reader (Thermo Scientific, USA). For the amplification of human DNA and parasitic DNA, three pairs of primers specific for human GAPDH (hGADPH), T. cruzi satellite DNA, and T. gondii B1 gene DNA were used (Table 7). Each reaction mixture contained 0.5 µL of 10 nM of each primer (Forward and reverse), 1 ng of DNA from T. cruzi samples, 10 ng of DNA from T. gondii samples, 10 µL of SensiFASTTM SYBR Hi-ROX kit (Bioline, Heidelberg, Baden Württemberg, Germany), and ultrapure water (Sigma-Aldrich, St. Louis, MO, USA) for a total of 20 µL.
(§3) Amplification was carried out using the CFX96 Touch Deep Well Real-Time PCR Detection System (Biorad, California, USA) with the following cycling program: initial denaturation at 95°C for 3 min, followed by 40 cycles of denaturation at 95°C for 5 s, annealing at 60°C for 30 s, and a dissociation stage ranging from 60°C to 95°C. The relative quantification analysis of the results was expressed as RQ values using the comparative […] (∆∆Ct) ([80]).

[3] = system: HPE exposed to T. gondii tachyzoites; assay: Histopathology of HPE infected with T. gondii; format: cell-based, human; conditions: IC50 concentration
Excerpt: as §2

[4] = Cytotoxicity on cells (resazurin), EA.hy926; format: cell-based; conditions: human, EA.hy926 endothelial cells
Excerpt: as §1

[5] = system: T. gondii (RH strain) in HPE; assay: T. gondii DNA load in infected human placental explants (HPE) by real-time qPCR; format: cell-based, Toxoplasma gondii; conditions: IC50 concentration
Method: The effect on HPE infection of compounds 1 and 7 by Toxoplasma gondii and Trypanosoma cruzi, respectively, was evaluated. To do this, the DNA of the T. gondii or T. cruzi parasite was quantified by infecting HPE for 24 hours under treatment conditions of co-incubation of compounds with the parasite at the same time of infection, and with a 24 hour post-infection treatment. The compound’s IC50 concentration value previously obtained under both conditions was used.
Term human placentas were obtained from uncomplicated pregnancies via scheduled cesarean sections. Each patient provided informed consent for the experimental use of the placenta, and the study was approved by the ethics committee of Hospital San José, Servicio Salud Metropolitano Norte (N° 013/2022). Exclusion criteria for placental use included significant fetal anomalies, placental tumors, intrauterine infection, positive serology for Chagas disease, obstetric pathology, and any other maternal disease. Donor patients tested negative for T. gondii IgG/IgM antibodies. Organs were collected in sterile, cold PBS and processed within 30 minutes after delivery. Maternal and fetal surfaces of each placenta were discarded, and the villous tissue from the central part of the placental cotyledons was isolated. […] All the experiments were performed in triplicate in at least three different placentas.
Cells or HPE were exposed to parasites. […]
Subsequently, cells were exposed to parasites at a 1:1 ratio (cell: parasite) for 24 hours. […] The resulting DNA was quantified using a μDrop Plate DNA quantification system on the Varioskan Flash multimode reader (Thermo Scientific, USA). […]
as §3

[6] = system: human placental explants (HPE); assay: Histopathology of uninfected HPE exposed to the compounds alone; conditions: explants incubated only with the compound, 24 h, IC50 concentration
Method: The HPE was fixed in 10% formaldehyde in 0.1 M phosphate buffer (pH 7.3) for 24 h, dehydrated in alcohol, clarified in xylene, embedded in paraffin, and sectioned at 3 µm. Paraffin histological sections were stained with hematoxylin-eosin for routine histological analysis, Picro Sirius red, and trichromic Masson for collagen histochemistry. Sections for the histological analysis were observed under an optical microscope (Leica DM500) and images were captured with a Leica ICC50 W camera ([7], [91]).

[7] = system: T. gondii tachyzoites, RH strain; assay: Resazurin viability assay on free T. gondii tachyzoites; format: cell-based, Toxoplasma gondii; conditions: for viability at 100 µM: tachyzoites RH
Excerpt: Untreated parasites served as a negative control.

[8] = system: T. gondii (RH strain) in BeWo cells; assay: Infection of BeWo cells by T. gondii, infected cells counted by fluorescence microscopy; format: cell-based, Toxoplasma gondii; conditions: compound at IC50, untreated control 64 ± 6
Method: The effect of the compounds on the infection of BeWo trophoblast cells by T. gondii and T. cruzi was assessed. The DNA of T. gondii and T. cruzi was quantified in infected BeWo cells treated for 24 hours under two conditions: co-incubation and post-infection treatment. […] Fluorescence microscopy was employed to quantify the number of infected cells. The resulting images were analyzed using ImageJ software to count both infected and uninfected cells.
For the microscopic analysis of BeWo cells infected with T. cruzi, the cells were washed with PBS to remove the supernatant, fixed with 90% cold methanol, rewashed with PBS, and incubated for 5 minutes with 1 µg/mL—1 4,6-diamidino-2-phenylindole (DAPI) (Molecular Probes). To analyze BeWo cells infected with T. gondii, cells were fixed with 90% cold methanol, washed with PBS containing 0.05% Tween, and blocked using 3% BSA for 1 hour at 37°C. Then, they were incubated with the primary monoclonal antibody Toxoplasma gondii (TP3): sc-52255 at a dilution of 1:500 with 1% BSA overnight at 4°C. Afterward, the samples were incubated with the FITC anti-mouse IgG secondary antibody at a dilution of 1:100 with 1% BSA for 1 hour at 37°C. Finally, they were washed with PBS containing 0.05% Tween and incubated for 5 minutes with DAPI. Subsequently, the sections were mounted in Vectashield (ScyTek ACA). Sections for the analysis of cell infection by T. cruzi and T. gondii were observed under an epifluorescence microscope (Motic BA 310), and images were captured with a Motic 5 camera. T. cruzi amastigotes were identified by their morphology, including nuclear size and the presence of a kinetoplast, and were analyzed and quantified using ImageJ. At least 500 cells per condition were analyzed, and infected and non-infected cells were counted for every 100 cells ([35], [70]).
as §2

T. cruzi = system: T. cruzi; design: method as in ref 28 (b), 32, 33 (c, d); conditions: Fig. 2 literature compounds; ref 28 (b), 32, 33 (c, d); cited from earlier work
T. gondii = system: T. gondii; design: method as in ref 26 (a), 34 (e), 38 (f); conditions: Fig. 2 literature compounds; ref 26 (a), 34 (e), 38 (f); cited from earlier work
[9] = Cyclic voltammetry, reduction potentials in DMSO (HDME, vs. Ag/AgCl); conditions: 2.00 V/s; for E(pIIa): anodic peak IIa; for E(pIIc): cathodic peak IIc, nitro anion radical couple; for E(pIca): cathodic peak Ica; for E(pIca) / E(pIcb): nitro reduction; for E(pIcb): cathodic peak Icb; for E(pIIIc): cathodic peak IIIc, hydroxylamine formation; for E(pIVc): cathodic peak IVc, imine reduction
[10] = Lipophilicity by reversed-phase TLC (RM); conditions: reverse phase-C18, DMSO/phosphate buffer pH 7.4 (70:30 vol/vol), RM = log[(1/Rf) – 1]
[11] = system: T. cruzi trypomastigotes, Dm28 strain; assay: Resazurin viability assay on free T. cruzi trypomastigotes; conditions: Trypanosoma cruzi, 24 h, read-out: Viability T. cruzi (%)
Method: The reduction of resazurin sodium salt was used to determine the trypanocidal and toxoplasmicidal activity of the 6-nitrocoumarin-thiosemicarbazone hybrids 1–8. For this, treatment with the compounds was carried out for 24 h at a concentration of 100 µM.
NFX was used as a positive control for T. cruzi, and PMN was used for T. gondii. Untreated parasites served as a negative control. […] Subsequently, parasites with their respective conditions were transferred to a 96-well white fluorescence reading plate, adding resazurin at a final concentration of […] with 0.8 mM phenazine. The plate was incubated for 3 hours at 37°C in a humidified atmosphere with 5% CO2, and fluorescence measurements were taken using a microplate reader (Thermo Scientific Varioskan Flash) at excitation wavelengths of 560 nm and emission wavelengths of 590 nm.

SMILES: CCc1nc(N)nc(N)c1-c1ccc(Cl)cc1 [PMN, pyrimethamine, reference compound]
CC50 at 24 h [1]: 125.5 ± 0.8 µM
effect on parasite DNA load ([2]; co-incubation): more significant
effect on parasite DNA load ([2]; post-infection treatment): significantly reduced the parasite DNA load
tissue damage in infected HPE (histopathology) ([3]; co-incubation): without causing tissue damage
tissue damage in infected HPE (histopathology) ([3]; post-infection treatment): decreased the induced tissue damage
CC50 at 24 h [4]: 287.5 ± 0.9 µM
effect on parasite DNA load ([5]; 24 hour post-infection treatment): decreased; also recorded: effectively reduced the explants’ parasitic load
effect on parasite DNA load ([5]; co-incubation): effectively reducing the parasitic load
tissue damage caused by the compound itself in HPE [6]: neither compound induced tissue damage
IC50 ([7]; Toxoplasma gondii, extracellular tachyzoites RH strain, 24 h, resazurin): 20.8 ± 1.1 µM
SI = BeWo CC50/parasite IC50 ([7]; parasite T. gondii): 6.03
SI = EA.hy926 CC50/parasite IC50 ([7]; parasite T. gondii): 13.8
Infected cells (%) ([8]; co-incubation 24 h): 19 ± 2%
Infected cells (%) ([8]; post-infection treatment 24 h): 16 ± 4%

SMILES: O=C(Cc1c([N+](=O)[O-])c(=O)oc2ccccc12)c1cccnc1 [c]
IC50 (T. cruzi): 137 µM

SMILES: O=C(O)c1cn(C2CC2)c2cc(N3CCN(Cc4ccc([N+](=O)[O-])o4)CC3)c(F)cc2c1=O [f]
IC50 (T. gondii): 7.9 µM

E(pIIa) [9]: −1.01 V
E(pIIc) [9]: −1.08 V
E(pIca) [9]: −0.89 V
E(pIcb) [9]: −0.99 V
Lipophilicity (RM) [10]: 0.13
SMILES: CNC(=S)N/N=C(\C)c1c(O)c2cc([N+](=O)[O-])ccc2oc1=O [Compound 2, (E)−2-(1-(4-hydroxy-6-nitro-2-oxo-2H-chromen-3-yl)ethylidene)-N-methylhydrazine-1-carbothioamide]
viability at 100 µM [11]: 81.5 ± 14.1%
viability at 100 µM ([7]; Toxoplasma gondii, 24 h): 29.1 ± 13.5%

E(pIIa) [9]: −1.00 V
E(pIIc) [9]: −1.08 V
E(pIca) [9]: −0.88 V
E(pIcb) [9]: −0.99 V
Lipophilicity (RM) [10]: 0.33
SMILES: CCNC(=S)N/N=C(\C)c1c(O)c2cc([N+](=O)[O-])ccc2oc1=O [Compound 3, (E)-N-ethyl-2-(1-(4-hydroxy-6-nitro-2-oxo-2H-chromen-3-yl)ethylidene)hydrazine-1-carbothioamide]
viability at 100 µM [11]: 70.7 ± 9.4%
viability at 100 µM ([7]; Toxoplasma gondii, 24 h): 49.6 ± 13.5%

E(pIIa) [9]: −1.01 V
E(pIIc) [9]: −1.09 V
E(pIca) [9]: −0.62 V
E(pIcb) [9]: −1.05 V
Lipophilicity (RM) [10]: 0.85
SMILES: C/C(=N\NC(=S)Nc1ccccc1)c1c(O)c2cc([N+](=O)[O-])ccc2oc1=O [Compound 4, (E)−2-(1-(4-hydroxy-6-nitro-2-oxo-2H-chromen-3-yl)ethylidene)-N-phenylhydrazine-1-carbothioamide]
viability at 100 µM [11]: 50.3 ± 5%
viability at 100 µM ([7]; Toxoplasma gondii, 24 h): 84.4 ± 13.7%

SMILES: COc1ccc(/C(COc2ccc(F)cc2)=N\NC(N)=S)cc1 [a]
IC50 (T. gondii): 1.09 µM

E(pIIa) [9]: −0.87 V
E(pIIIc) [9]: −1.40 V
E(pIIc) [9]: −0.93 V
E(pIVc) [9]: −1.68 V
Lipophilicity (RM) [10]: −0.41
SMILES: CNC(=S)N/N=C(\C)c1cc2cc([N+](=O)[O-])ccc2oc1=O [Compound 6, (E)-N-methyl-2-(1-(6-nitro-2-oxo-2H-chromen-3-yl)ethylidene)hydrazine-1-carbothioamide]
viability at 100 µM [11]: 49.8 ± 5.3%
viability at 100 µM ([7]; Toxoplasma gondii, 24 h): 55.5 ± 9.6%

SMILES: O=c1oc2c(O)c(O)ccc2cc1-c1ccccc1O [d]
IC50 (T. cruzi): 39.7 µM

SMILES: C/C(=N\N=C1\NC(=O)CS1)c1cc2ccccc2oc1=O [e]
IC50 (T. gondii): 8 µM

SMILES: NC(=S)N/N=C/c1ccc([N+](=O)[O-])o1 [b]
IC50 (T. cruzi): 9.8 µM

E(pIIa) [9]: −0.90 V
E(pIIIc) [9]: ~−1.38 V
E(pIIc) [9]: ~−0.94 V
E(pIVc) [9]: ~−1.66 V
Lipophilicity (RM) [10]: −0.58
SMILES: C/C(=N\NC(N)=S)c1cc2cc([N+](=O)[O-])ccc2oc1=O [Compound 5, (E)−2-(1-(6-nitro-2-oxo-2H-chromen-3-yl)ethylidene)hydrazine-1-carbothioamide]
viability at 100 µM [11]: 44.6 ± 7.1%
viability at 100 µM ([7]; Toxoplasma gondii, 24 h): 65.7 ± 14.8%
